Converted amounts (≈) assume the structure as drawn.
Experiments:
C. freundii [1] = test: MIC of carbapenem by Etest (Example 2); format: cell-based, Citrobacter freundii
Experimental: (§1) All strains had previously been characterized for their β-lactamase content at the molecular level. Minimum inhibitory concentration of carbapenem were determined using the Etest® (AB bioMérieux, Solna, Sweden) and results were recorded according to US guidelines (CLSI), as updated in 2011.

P. mirabilis [2] = test: MIC of carbapenem by Etest (Example 2); format: cell-based, Proteus mirabilis; conditions: Plasmid mediated AmpC or chromosomal AmpC + decreased membrane permeability; P. mirabilis ACC-1, n=1
Experimental: as §1

E. coli [3] = test: MIC of carbapenem by Etest (Example 2); format: cell-based, Escherichia coli
Experimental: as §1

E. cloacae [4] = test: MIC of carbapenem by Etest (Example 2); format: cell-based, Enterobacter cloacae
Experimental: as §1

P. stuartii [5] = test: MIC of carbapenem by Etest (Example 2); format: cell-based, Providencia stuartii; conditions: P. stuartii NDM-1, n=1
Experimental: as §1

P. rettgeri [6] = test: MIC of carbapenem by Etest (Example 2); format: cell-based, Proteus rettgeri
Experimental: as §1

C. freundii [7] = test: MIC by Etest on Mueller-Hinton agar (Example 1); format: cell-based; conditions: Citrobacter freundii; C. freundii STE (13); NDM-1 + OXA-1 + OXA-9 + OXA-10 + CTX-M-15 + TEM-1
Experimental: (§2) Prior to performing the method of the invention, susceptibility testings were performed by determining Minimum Inhibitory Concentration (MIC) values by the Etest® (AB bioMérieux; Solna, Sweden) on Mueller-Hinton agar plates at 37° C. and results of susceptibility testing were recorded according to the Clinical and Laboratory Standards Institute (CLSI) guidelines as modified in June 2010 (18). The breakpoints for imipenem are S≦1 μg/ml (susceptibility) and R≧4 μg/ml (resistant). As for those for ertapenem, they are S≦0.25 μg/ml and R≧1 μg/ml (see Tables 1 and 2).

P. mirabilis [8] = test: MIC by Etest on Mueller-Hinton agar (Example 1); format: cell-based; conditions: Proteus mirabilis, plasmid mediated cephalosporinase ACC-1
Experimental: as §2

E. cloacae [9] = test: MIC by Etest on Mueller-Hinton agar (Example 1); format: cell-based; conditions: Enterobacter cloacae
Experimental: as §2

P. stuartii [10] = test: MIC by Etest on Mueller-Hinton agar (Example 1); format: cell-based; conditions: Providencia stuartii, NDM-1 + OXA-1 + CMY-6
Experimental: as §2

E. coli [11] = test: MIC by Etest on Mueller-Hinton agar (Example 1); format: cell-based, Escherichia coli; conditions: for MIC: Escherichia coli
Experimental: as §2

S. marcescens = test: MIC of carbapenem by Etest (Example 2); format: cell-based, Serratia marcescens
Experimental: as §1

K. pneumoniae = test: MIC of carbapenem by Etest (Example 2); format: cell-based, Klebsiella pneumoniae
Experimental: as §1

K. ozonae = test: MIC of carbapenem by Etest (Example 2); format: cell-based; conditions: K. ozonae KPC-3, n=1
Experimental: as §1

Salmonella spp. = test: MIC of carbapenem by Etest (Example 2); format: cell-based; conditions: Salmonella spp. KPC-2, n=1
Experimental: as §1

E. sakazaki = test: MIC of carbapenem by Etest (Example 2); format: cell-based; conditions: ESBL + decreased membrane permeability; E. sakazaki CTX-M-15, n=1
Experimental: as §1

P. rettgeri [12] = test: MIC by Etest on Mueller-Hinton agar (Example 1); format: cell-based, Proteus rettgeri; conditions: Providencia rettgeri; P. rettgeri RAP (9); OXA-181 + OXA-1
Experimental: as §2

E. asburiae = test: MIC of carbapenem by Etest (Example 2); format: cell-based, Enterobacter asburiae; conditions: E. asburiae IMI-2, n=1
Experimental: as §1

E. aerogenes = test: MIC of carbapenem by Etest (Example 2); format: cell-based, Enterobacter aerogenes
Experimental: as §1

M. morganii = test: MIC of carbapenem by Etest (Example 2); format: cell-based, Morganella morganii; conditions: Plasmid mediated AmpC or chromosomal AmpC + decreased membrane permeability; M. morganii Overexpressed cephalosporinase, n=2
Experimental: as §1

SMILES: C[C@@H](O)[C@H]1C(=O)N2C(C(=O)O)=C(SCCN=CN)C[C@H]12 [IMP, imipenem]
- MICs range (C. freundii [1]; C. freundii NDM-1, n=1): >32 mg/L
- MICs range (C. freundii [1]; ESBL + decreased membrane permeability, C. freundii TEM-3, n=1): 1 mg/L
- MICs range (P. mirabilis [2]): 0.25 mg/L
- MICs range (E. coli [3]; E. coli IMP-1, n=2): 0.5 mg/L
- MICs range (E. coli [3]; E. coli IMP-8, n=1): 6 mg/L
- MICs range (E. coli [3]; E. coli KPC-2, n=5): 0.5 to 4 mg/L
- MICs range (E. coli [3]; E. coli NDM-1, n=7): 1 to 16 mg/L
- MICs range (E. coli [3]; E. coli OXA-48, n=6): 0.38 to 3 mg/L
- MICs range (E. coli [3]; E. coli VIM-1, n=2): 1.5 to 3 mg/L
- MICs range (E. coli [3]; E. coli VIM-2, n=2): 2 to 4 mg/L
- MICs range (E. coli [3]; E. coli VIM-19, n=1): 8 mg/L
- MICs range (E. coli [3]; ESBLs, E. coli CTX-M-1, n=1): 0.12 mg/L
- MICs range (E. coli [3]; ESBLs, E. coli CTX-M-3, n=1): 0.12 mg/L
- MICs range (E. coli [3]; ESBLs, E. coli CTX-M-14, n=2): 0.12 mg/L
- MICs range (E. coli [3]; ESBLs, E. coli CTX-M-15, n=2): 0.12 mg/L
- MICs range (E. coli [3]; ESBLs, E. coli VEB-1, n=1): 0.12 to 0.25 mg/L
- MICs range (E. coli [3]; Plasmid mediated AmpC or chromosomal AmpC + decreased membrane permeability, E. coli ACC-1, n=1): 0.12 mg/L
- MICs range (E. coli [3]; Plasmid mediated AmpC or chromosomal AmpC + decreased membrane permeability, E. coli CMY-2, n=1): 0.12 mg/L
- MICs range (E. coli [3]; Plasmid mediated AmpC or chromosomal AmpC + decreased membrane permeability, E. coli CMY-10, n=1): 0.12 mg/L
- MICs range (E. coli [3]; Plasmid mediated AmpC or chromosomal AmpC + decreased membrane permeability, E. coli DHA-1, n=1): 0.12 mg/L
- MICs range (E. coli [3]; Plasmid mediated AmpC or chromosomal AmpC + decreased membrane permeability, E. coli Extended spectrum cephalosporinase, n=1): 0.12 mg/L
- MICs range (E. coli [3]; Plasmid mediated AmpC or chromosomal AmpC + decreased membrane permeability, E. coli Overexpressed cephalosporinase, n=1): 16 mg/L
- MICs range (E. cloacae [4]; E. cloacae GES-5, n=1): >32 mg/L
- MICs range (E. cloacae [4]; E. cloacae IMP-8, n=2): 0.75 to 1.5 mg/L
- MICs range (E. cloacae [4]; E. cloacae KPC-2, n=7): 1 to 24 mg/L
- MICs range (E. cloacae [4]; E. cloacae NDM-1, n=1): 2 mg/L
- MICs range (E. cloacae [4]; E. cloacae NMC-A, n=1): 16 mg/L
- MICs range (E. cloacae [4]; E. cloacae OXA-48, n=3): 0.5 to 1 mg/L
- MICs range (E. cloacae [4]; ESBLs, E. cloacae CTX-M-15, n=3): 0.12 mg/L
- MICs range (E. cloacae [4]; ESBLs, E. cloacae VEB-1, n=1): 0.12 mg/L
- MICs range (E. cloacae [4]; Plasmid mediated AmpC or chromosomal AmpC + decreased membrane permeability, E. cloacae Overexpressed cephalosporinase, n=7): 0.12 to 16^ mg/L
- MICs range (P. stuartii [5]): 12 mg/L
- MICs range (P. rettgeri [6]; P. rettgeri NDM-1, n=1): 3 mg/L
- MICs range (P. rettgeri [6]; P. rettgeri OXA-181, n=1): 8 mg/L
- MIC (C. freundii [7]): > 32 µg/mL
- MIC (P. mirabilis [8]): 0.19 µg/mL (≈ 0.635 µM)
- MIC (E. cloacae [9]; E. cloacae 2185, ESBL OXA-163): 0.19 µg/mL (≈ 0.635 µM)
- MIC (E. cloacae [9]; E. cloacae (1), KPC-2): 4 µg/mL (≈ 13.4 µM)
- MIC (E. cloacae [9]; E. cloacae (17), ESBL CTX-M-15): 0.19 µg/mL (≈ 0.635 µM)
- MIC (E. cloacae [9]; E. cloacae ARF (25), overexpression of chromosomal cephalosporinase AmpC): 0.38 µg/mL (≈ 1.27 µM)
- MIC (E. cloacae [9]; E. cloacae BLA, overexpression of chromosomal cephalosporinase AmpC): 0.38 µg/mL (≈ 1.27 µM)
- MIC (E. cloacae [9]; E. cloacae CON (26), overexpression of chromosomal cephalosporinase AmpC): 0.5 µg/mL (≈ 1.67 µM)
- MIC (E. cloacae [9]; E. cloacae IR38, NDM-1 + CTX-M-15): > 32 µg/mL
- MIC (E. cloacae [9]; E. cloacae TUR (6), OXA-48 + SHV-5): 0.5 µg/mL
- MIC (E. cloacae [9]; E. cloacae, ESBL VEB-1): 0.19 µg/mL (≈ 0.635 µM)
- MIC (P. stuartii [10]): > 32 µg/mL
- MICs (E. coli [11]; E. coli Ec13 SYD (23), plasmid mediated cephalosporinase CMY-2): 0.06 µg/mL
- MICs (E. coli [11]; E. coli J53 (29), wild-type): 0.06 µg/mL
- MICs (E. coli [11]; E. coli VMC (24), plasmid mediated cephalosporinase CMY-10): 0.06 µg/mL
- MIC (E. coli [11]; E. coli 271 AUS (12), NDM-1 + CTX-M-15 + TEM-1): 6 µg/mL
- MIC (E. coli [11]; E. coli 5649 GEN, NDM-1 + OXA-1 + CMY-30 + TEM-1): 6 µg/mL
- MIC (E. coli [11]; E. coli (18), ESBL CTX-M-14): 0.06 µg/mL (≈ 0.2 µM)
- MIC (E. coli [11]; E. coli (20), ESBL VEB-1): 0.06 µg/mL (≈ 0.2 µM)
- MIC (E. coli [11]; E. coli ALL, NDM-1 + OXA-1 + OXA-2 + CTX-M-15 + TEM-1): 4 µg/mL
- MIC (E. coli [11]; E. coli BOU, OXA-48 + CTX-M-15): 1 µg/mL
- MIC (E. coli [11]; E. coli COL (2), KPC-2): 4 µg/mL (≈ 13.4 µM)
- MIC (E. coli [11]; E. coli DIH, VIM-19): 1 µg/mL (≈ 3.34 µM)
- MIC (E. coli [11]; E. coli DIN, KPC): 16 µg/mL (≈ 53.4 µM)
- MIC (E. coli [11]; E. coli FOR, ESBL CTX-M-15): 0.06 µg/mL (≈ 0.2 µM)
- MIC (E. coli [11]; E. coli HAN (7), OXA-48): 0.5 µg/mL (≈ 1.67 µM)
- MIC (E. coli [11]; E. coli MAD (14), VIM-1 + CTX-M-3): 1.5 µg/mL
- MIC (E. coli [11]; E. coli MAD, IMP-1): 0.5 µg/mL (≈ 1.67 µM)
- MIC (E. coli [11]; E. coli PSP, KPC-2): 1 µg/mL (≈ 3.34 µM)
- MIC (E. coli [11]; E. coli RIC, NDM-1 + OXA-1 + OXA-10 + CMY-16): 4 µg/mL
- MICs range (S. marcescens; S. marcescens IMP-11, n=1): 8 mg/L
- MICs range (S. marcescens; S. marcescens KPC-2, n=2): >32 mg/L
- MICs range (S. marcescens; S. marcescens SME-1, n=1): 32 mg/L
- MICs range (S. marcescens; S. marcescens SME-2, n=1): 32 mg/L
- MICs range (S. marcescens; S. marcescens VIM-2, n=1): >32 mg/L
- MICs range (K. pneumoniae; ESBL + decreased membrane permeability, K. pneumoniae CTX-M-15, n=8): 0.25 to 8 mg/L
- MICs range (K. pneumoniae; ESBL + decreased membrane permeability, K. pneumoniae SHV-2a, n=1): 0.25 mg/L
- MICs range (K. pneumoniae; ESBL + decreased membrane permeability, K. pneumoniae SHV-28, n=1): 1 mg/L
- MICs range (K. pneumoniae; ESBLs, K. pneumoniae CTX-M-3, n=1): 0.12 mg/L
- MICs range (K. pneumoniae; ESBLs, K. pneumoniae CTX-M-14, n=1): 0.12 mg/L
- MICs range (K. pneumoniae; ESBLs, K. pneumoniae CTX-M-15, n=3): 0.12 mg/L
- MICs range (K. pneumoniae; K. pneumoniae IMP-1, n=5): 0.5 to 8 mg/L
- MICs range (K. pneumoniae; K. pneumoniae IMP-8, n=2): 0.5 to 1 mg/L
- MICs range (K. pneumoniae; K. pneumoniae KPC-3, n=3): 0.5 to 8 mg/L
- MICs range (K. pneumoniae; K. pneumoniae NDM-4, n=1): >32 mg/L
- MICs range (K. pneumoniae; K. pneumoniae OXA-181, n=2): 0.5 to 1 mg/L
- MICs range (K. pneumoniae; K. pneumoniae VIM-19, n=1): 8 mg/L
- MICs range (K. pneumoniae; Plasmid mediated AmpC or chromosomal AmpC + decreased membrane permeability, K. pneumoniae DHA-1, n=1): >32 mg/L
- MICs range (K. pneumoniae; Plasmid mediated AmpC or chromosomal AmpC + decreased membrane permeability, K. pneumoniae DHA-2, n=1): 0.12 mg/L
- MICs range (K. ozonae): >32 mg/L
- MICs range (Salmonella spp.): 4 mg/L
- MICs range (E. sakazaki): 0.25 mg/L
- MIC (P. rettgeri [12]): 1 µg/mL
- MICs range (E. asburiae): >32 mg/L
- MICs range (E. aerogenes; E. aerogenes KPC-2, n=1): 8 mg/L
- MICs range (E. aerogenes; Plasmid mediated AmpC or chromosomal AmpC + decreased membrane permeability, E. aerogenes Overexpressed cephalosporinase, n=1): 1 mg/L
- MICs range (M. morganii): 1.5 to 2^ mg/L

From patent US9340819B2, “Method for detecting the presence of carbapenemase-producing bacteria in a sample” (priority 2011, dated 2016)
